System: Chung model of neuropathic pain
Experiment: Chung model of neuropathic pain (tactile allodynia, von Frey hairs)
Type: in vivo
Conditions: rats
Text: A model in accordance with Kim and Chung 1992, Pain […], pp 355-363 (Chung model), for chronic pain (in particular peripheral neuropathy) involves the surgical ligation of the L5 (and optionally the L6) spinal nerves on one side in experimental animals. Rats recovering from the surgery gain weight and display a level of general activity similar to that of normal rats. However, these rats develop abnormalities of the foot, wherein the hindpaw is moderately everted and the toes are held together. More importantly, the hindpaw on the side affected by the surgery appears to become sensitive to pain from low-threshold mechanical stimuli, such as that producing a faint sensation of touch in a human, within about 1 week following surgery. This sensitivity to normally non-painful touch is called “tactile allodynia” and lasts for at least two months. The response includes lifting the affected hindpaw to escape from the stimulus, licking the paw and holding it in the air for many seconds. None of these responses is normally seen in the control group.
Rats are anesthetized before surgery. The surgical site is shaved and prepared either with betadine or Novacaine. Incision is made from the thoracic vertebra XIII down toward the sacrum. Muscle tissue is separated from the spinal vertebra (left side) at the L4-S2 levels. The L6 vertebra is located and the transverse process is carefully removed with a small rongeur to expose the L4-L6 spinal nerves. The L5 and L6 spinal nerves are isolated and tightly ligated with 6-0 silk thread. The same procedure is done on the right side as a control, except no ligation of the spinal nerves is performed.
A complete hemostasis is confirmed, then the wounds are sutured. A small amount of antibiotic ointment is applied to the incised area, and the rat is transferred to the recovery plastic cage under a regulated heat-temperature lamp. On the day of the experiment, at least seven days after the surgery, typically six rats per test group are administered the test drugs by intraperitoneal (i.p.) injection or oral gavage. For i.p. injection, the compounds are formulated in approximately 10 to 50% DMSO and given in a volume of 1 ml/kg body weight.
Tactile allodynia is measured prior to and 30 minutes after drug administration using von Frey hairs that are a series of fine hairs with incremental differences in stiffness. Rats are placed in a plastic cage with a wire mesh bottom and allowed to acclimate for approximately 30 minutes. The von Frey hairs are applied perpendicularly through the mesh to the mid-plantar region of the rats' hindpaw with sufficient force to cause slight buckling and held for 6-8 seconds. The applied force has been calculated to range from 0.41 to 15.1 grams. If the paw is sharply withdrawn, it is considered a positive response. A normal animal will not respond to stimuli in this range, but a surgically ligated paw will be withdrawn in response to a 1-2 gram hair. The 50% paw withdrawal threshold is determined using the method of Dixon, W. J., Ann. Rev. Pharmacol. Toxicol. 20:441-462 (1980). The post-drug threshold is compared to the pre-drug threshold and the percent reversal of tactile sensitivity is calculated based on a normal threshold of 15.1 grams. The results are expressed in percent (%) MPE, where the MPE value reflects the percentage reversal of pain threshold to that of a normal animal (100%).

`Cc1cccc(C(Cc2cccnc2)/N=C2/NCCO2)c1C` (stereo not drawn) [Compound 21, 1-(2,3-Dimethylphenyl)-N-(oxazolidin-2-ylidene)-2-(pyridin-3-yl)ethanamine] was tested, and the “% Pain Reversal ± SEM” value (0.10 mg i.p., 30 min) was 27 ± 5%, the “% Pain Reversal ± SEM” value (0.10 mg i.p., 60 min) was roughly 10% and the “% Pain Reversal ± SEM” value (0.30 mg i.p., 30 min) was 60.1 ± 12.8%. The “% Pain Reversal ± SEM” value (0.30 mg i.p., 60 min) was 21.5 ± 6.1%, the “% Pain Reversal ± SEM” value (1.0 mg i.p., 30 min) was 95.9 ± 4.1% and the “% Pain Reversal ± SEM” value (1.0 mg i.p., 60 min) was 77.0 ± 7.6%.

— patent US8362022B2, “Selective subtype alpha 2 adrenergic agents and methods for use thereof” (Allergan, Inc., priority 2008, dated 2013)
